Data reported in patent publication US12371454B2, “Cyclic peptide compound having Kras inhibitory action” (priority 2019, dated 2025).
Starred links: 1 amine or outer side, 2 acyl side, 3 side chain; linkers in the order of their positions; H or OH if unused. Positions of bridges follow the written chain, without caps; N, C: chain ends. Non-standard residues stand in square brackets, D forms with d. Residues, ends and D or L forms follow the SMILES beside them. *: point of attachment. hPhe(3,5-F2-4-CF3) = N[C@@H](CCc1cc(F)c(C(F)(F)F)c(F)c1)C(=O)O; hPhe(3-Cl-4-CF3) = N[C@@H](CCc1ccc(C(F)(F)F)c(Cl)c1)C(=O)O; NMePhe(4-CF3) = CN[C@@H](Cc1ccc(C(F)(F)F)cc1)C(=O)O; Thiomorpholino(1,1-dioxo) = O=S1(=O)CCN(*)CC1; NMeAbu(4,4,4-F3) = CN[C@@H](CC(F)(F)F)C(=O)O; NMePhe(4-Cl) = CN[C@@H](Cc1ccc(Cl)cc1)C(=O)O; NMePhe(4-Me) = CN[C@@H](Cc1ccc(C)cc1)C(=O)O; X54 = O=C([C@H](Cc1cccc(Br)c1F)N[*:1])[*:2]; X56 = O=C([C@H](Cc1cc(F)ccc1F)N[*:1])[*:2]; X8 = O=C([C@H](Cc1cc(I)ccc1F)N[*:1])[*:2]; NMeGly(cPent) = CN[C@H](C(=O)O)C1CCCC1; Phe(3-I) = N[C@@H](Cc1cccc(I)c1)C(=O)O; Phe(4-F) = N[C@@H](Cc1ccc(F)cc1)C(=O)O; Pro(4,4-F2) = O=C(O)[C@@H]1CC(F)(F)CN1; NMeGly(cBu) = CN[C@H](C(=O)O)C1CCC1; NMeY = CN[C@@H](Cc1ccc(O)cc1)C(=O)O; NMeCha = CN[C@@H](CC1CCCCC1)C(=O)O; NMehLeu = CN[C@@H](CCC(C)C)C(=O)O; NEtLeu = CCN[C@@H](CC(C)C)C(=O)O; NMeChg = CN[C@H](C(=O)O)C1CCCCC1; NMeI = CC[C@H](C)[C@H](NC)C(=O)O; NMeD = CN[C@@H](CC(=O)O)C(=O)O; NMeL = CN[C@@H](CC(C)C)C(=O)O; NMeNva = CCC[C@H](NC)C(=O)O; NMeAbu = CC[C@H](NC)C(=O)O; Morpholide = C1CN(*)CCO1; NMeA = CN[C@@H](C)C(=O)O; NMeAib = CNC(C)(C)C(=O)O; Nle = CCCC[C@H](N)C(=O)O; Piperidide = C1CCN(*)CC1; Pra = C#CC[C@H](N)C(=O)O; Pyrrolidide = C1CCN(*)C1; Ac5c = NC1(C(=O)O)CCCC1; Aze = O=C(O)[C@@H]1CCN1; CF3 = FC(F)(F)*; Sar = CNCC(=O)O

Biological target: T1, Kras and SOS1 (biotin-tagged human Kras loaded with GDP, His-tagged human SOS1) (Homo sapiens, UniProt P01116, G12D)
T1 construct: made in house; host or cells: E. coli (stated for Kras only)
T1 sequence (P01116 1-188 isoform P01116-2 G12D): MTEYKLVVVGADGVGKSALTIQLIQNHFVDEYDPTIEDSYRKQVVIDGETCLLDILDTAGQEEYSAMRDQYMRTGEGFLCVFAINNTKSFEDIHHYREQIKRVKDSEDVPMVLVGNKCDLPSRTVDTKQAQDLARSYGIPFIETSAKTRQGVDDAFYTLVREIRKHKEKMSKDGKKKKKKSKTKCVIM
Assay: Protein-protein interaction inhibition between Kras and SOS1 (KrasGl2D-SOS PPI) using AlphaScreen
Format: binding
Conditions: AlphaScreen; biotin-tagged human Kras loaded with GDP, His-tagged human SOS1; read-out: KRAS G12D-SOS PPI IC50
Summary of the method: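 Binding between SOS1 and Kras is detected as bead-proximity luminescence: illuminate Ni-conjugated donors (680 nm), collect 520-620 nm emission from streptavidin-conjugated acceptors; Kras carries biotin and GDP loaded after purification, SOS1 carries a His tag.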

Row | Structure (SMILES) | IC50 [nM]
1 | CC[C@H](C)[C@@H]1NC(=O)[C@H](CC(C)C)N(C)C(=O)C[C@@H](C(=O)N2CCS(=O)(=O)CC2)N(C)C(=O)[C@H](C2CCCCC2)N(C)C(=O)C2(CCCC2)NC(=O)[C@@H]2CCCN2C(=O)[C@H](CCc2ccc(C(F)(F)F)c(Cl)c2)NC(=O)CN(C)C(=O)[C@H](CC2CCCCC2)N(C)C(=O)CN(C)C(=O)CN(C)C1=O [Compound 1263] ([NMeL]I[Sar][Sar][NMeCha][Sar][hPhe(3-Cl-4-CF3)]P[Ac5c][NMeChg][NMeD]-{Thiomorpholino(1,1-dioxo)}; lactam N-11) | 2.7
2 | CCCC[C@@H]1NC(=O)[C@H](Cc2cc(F)ccc2F)NC(=O)CN(C)C(=O)[C@H](Cc2ccc(OC)cc2)N(C)C(=O)[C@@H]2CCN2C(=O)[C@H](C)N(C)C(=O)[C@H]([C@@H](C)CC)NC(=O)[C@H](CC)N(C)C(=O)C[C@@H](C(=O)N2CCCCC2)N(C)C(=O)[C@H](CC(C)C)NC(=O)C(C)(C)N(C)C1=O [Compound 1268] ([NMeAbu]I[NMeA][Aze][NMeY](Me)[Sar][X56][Nle][NMeAib]L[NMeD]-Piperidide; lactam N-11) | 19
3 | CC[C@H](C)[C@@H]1NC(=O)[C@H](CC(C)C)N(C)C(=O)C[C@@H](C(=O)N2CCCC2)N(C)C(=O)[C@H](C2CCCC2)N(C)C(=O)C2(CCCC2)NC(=O)[C@@H]2CC(F)(F)CN2C(=O)[C@H](CCc2ccc(C(F)(F)F)c(Cl)c2)NC(=O)CN(C)C(=O)[C@H](CC2CCCCC2)N(C)C(=O)CN(C)C(=O)CN(C)C1=O [Compound 1270] ([NMeL]I[Sar][Sar][NMeCha][Sar][hPhe(3-Cl-4-CF3)][Pro(4,4-F2)][Ac5c][NMeGly(cPent)][NMeD]-Pyrrolidide; lactam N-11) | 0.61
4 | CC[C@H](C)[C@@H]1NC(=O)[C@H](CC(C)C)N(C)C(=O)C[C@@H](C(=O)N2CCCCC2)NC(=O)[C@H](C2CCCCC2)N(C)C(=O)C2(CCCC2)NC(=O)[C@@H]2CCCN2C(=O)[C@H](CCc2ccc(C(F)(F)F)c(Cl)c2)NC(=O)CN(C)C(=O)[C@H](CC2CCCCC2)N(C)C(=O)CN(C)C(=O)CN(C)C1=O [Compound 1274] ([NMeL]I[Sar][Sar][NMeCha][Sar][hPhe(3-Cl-4-CF3)]P[Ac5c][NMeChg]D-Piperidide; lactam N-11) | 3.8
5 | CC[C@H](C)[C@@H]1NC(=O)[C@H](CC(C)C)N(C)C(=O)C[C@@H](C(=O)N2CCOCC2)NC(=O)[C@H]([C@@H](C)CC)N(C)C(=O)C2(CCCC2)NC(=O)[C@@H]2CCCN2C(=O)[C@H](CCc2ccc(C(F)(F)F)c(Cl)c2)NC(=O)CN(C)C(=O)[C@H](CC2CCCCC2)N(C)C(=O)CN(C)C(=O)CN(C)C1=O [Compound 1277] ([NMeL]I[Sar][Sar][NMeCha][Sar][hPhe(3-Cl-4-CF3)]P[Ac5c][NMeI]D-Morpholide; lactam N-11) | 6.7
6 | CC[C@H](C)[C@@H]1NC(=O)[C@H](CC(C)C)N(C)C(=O)C[C@@H](C(=O)N2CCS(=O)(=O)CC2)NC(=O)[C@H]([C@@H](C)CC)N(C)C(=O)C2(CCCC2)NC(=O)[C@@H]2CCCN2C(=O)[C@H](CCc2ccc(C(F)(F)F)c(Cl)c2)NC(=O)CN(C)C(=O)[C@H](CC2CCCCC2)N(C)C(=O)CN(C)C(=O)CN(C)C1=O [Compound 1279] ([NMeL]I[Sar][Sar][NMeCha][Sar][hPhe(3-Cl-4-CF3)]P[Ac5c][NMeI]D-{Thiomorpholino(1,1-dioxo)}; lactam N-11) | 16
7 | CC[C@H](C)[C@@H]1NC(=O)[C@H](CC(F)(F)F)N(C)C(=O)C[C@@H](C(=O)N2CCCC2)N(C)C(=O)[C@H](C2CCCCC2)N(C)C(=O)C2(CCCC2)NC(=O)[C@@H]2CC(F)(F)CN2C(=O)[C@H](CCc2cc(F)c(C(F)(F)F)c(F)c2)NC(=O)CN(C)C(=O)[C@H](CC2CCCCC2)N(C)C(=O)CN(C)C(=O)CN(C)C1=O [Compound 1281] ([NMeAbu(4,4,4-F3)]I[Sar][Sar][NMeCha][Sar][hPhe(3,5-F2-4-CF3)][Pro(4,4-F2)][Ac5c][NMeChg][NMeD]-Pyrrolidide; lactam N-11) | 0.42
8 | CC[C@H](C)[C@@H]1NC(=O)[C@H](CC(C)C)N(CC)C(=O)C[C@@H](C(=O)N(C)C)N(C)C(=O)[C@H](C2CCCC2)N(C)C(=O)C2(CCCC2)NC(=O)[C@@H]2CCCN2C(=O)[C@H](CCc2ccc(C(F)(F)F)c(Cl)c2)NC(=O)CN(C)C(=O)[C@H](Cc2ccc(C)cc2)N(C)C(=O)[C@@H]2CCN2C(=O)[C@H](C)NC1=O [Compound 1282] ([NEtLeu]IA[Aze][NMePhe(4-Me)][Sar][hPhe(3-Cl-4-CF3)]P[Ac5c][NMeGly(cPent)][NMeD]-NMe2; lactam N-11) | 0.81
9 | CCCC[C@@H]1NC(=O)[C@H](Cc2cc(I)ccc2F)NC(=O)CN(C)C(=O)[C@H](Cc2ccc(Cl)cc2)N(C)C(=O)CN(C)C(=O)CN(C)C(=O)[C@H]([C@@H](C)CC)NC(=O)[C@H](CC(C)C)N(C)C(=O)C[C@@H](C(=O)N2CCCCC2)N(C)C(=O)[C@H](CC(C)C)NC(=O)C(C)(C)N(C)C1=O [Compound 1286] ([NMeL]I[Sar][Sar][NMePhe(4-Cl)][Sar][X8][Nle][NMeAib]L[NMeD]-Piperidide; lactam N-11) | 24
10 | C#CC[C@@H]1NC(=O)[C@H](Cc2cccc(I)c2)NC(=O)CN(C)C(=O)[C@H](Cc2ccc(OC(F)(F)F)cc2)N(C)C(=O)[C@@H]2CCN2C(=O)[C@H](C)N(C)C(=O)[C@H]([C@@H](C)CC)NC(=O)[C@H](CC(C)C)N(C)C(=O)C[C@@H](C(=O)N2CCCCC2)N(C)C(=O)[C@H](CC(C)C)NC(=O)C(C)(C)N(C)C1=O [Compound 1288] ([NMeL]I[NMeA][Aze][NMeY](CF3)[Sar][Phe(3-I)][Pra][NMeAib]L[NMeD]-Piperidide; lactam N-11) | 31
11 | CC[C@H](C)[C@@H]1NC(=O)[C@H](CCC(C)C)N(C)C(=O)C[C@@H](C(=O)N2CCCC2)N(C)C(=O)[C@H]([C@@H](C)CC)N(C)C(=O)C2(CCCC2)NC(=O)[C@@H]2CCCN2C(=O)[C@H](CCc2ccc(C(F)(F)F)c(Cl)c2)NC(=O)CN(C)C(=O)[C@H](Cc2ccc(C(F)(F)F)cc2)N(C)C(=O)[C@@H]2CCN2C(=O)[C@H](C)N(C)C1=O [Compound 1289] ([NMehLeu]I[NMeA][Aze][NMePhe(4-CF3)][Sar][hPhe(3-Cl-4-CF3)]P[Ac5c][NMeI][NMeD]-Pyrrolidide; lactam N-11) | 0.67
12 | CC[C@H](C)[C@@H]1NC(=O)[C@H](C2CCC2)N(C)C(=O)C[C@@H](C(=O)N2CCCC2)N(C)C(=O)[C@H](C2CCCCC2)N(C)C(=O)C2(CCCC2)NC(=O)[C@@H]2CC(F)(F)CN2C(=O)[C@H](CCc2cc(F)c(C(F)(F)F)c(F)c2)NC(=O)CN(C)C(=O)[C@H](CC2CCCCC2)N(C)C(=O)CN(C)C(=O)CN(C)C1=O [Compound 1295] ([NMeGly(cBu)]I[Sar][Sar][NMeCha][Sar][hPhe(3,5-F2-4-CF3)][Pro(4,4-F2)][Ac5c][NMeChg][NMeD]-Pyrrolidide; lactam N-11) | 0.5
13 | CCC[C@H]1C(=O)N[C@@H]([C@@H](C)CC)C(=O)N(C)CC(=O)N(C)CC(=O)N(C)[C@@H](Cc2ccc(C)cc2)C(=O)N(C)CC(=O)N[C@@H](CCc2ccc(C(F)(F)F)c(Cl)c2)C(=O)N2CC(F)(F)C[C@H]2C(=O)NC2(CCCC2)C(=O)N(C)[C@@H](C2CCCCC2)C(=O)N(C)[C@H](C(=O)N2CCCC2)CC(=O)N1C [Compound 1296] ([NMeNva]I[Sar][Sar][NMePhe(4-Me)][Sar][hPhe(3-Cl-4-CF3)][Pro(4,4-F2)][Ac5c][NMeChg][NMeD]-Pyrrolidide; lactam N-11) | 0.59
14 | C#CC[C@@H]1NC(=O)[C@H](Cc2cccc(I)c2)NC(=O)CN(C)C(=O)[C@H](Cc2ccc(OC(F)(F)F)cc2)N(C)C(=O)[C@@H]2CCN2C(=O)CN(C)C(=O)[C@H]([C@@H](C)CC)NC(=O)[C@H](CC(C)C)N(C)C(=O)C[C@@H](C(=O)N2CCCCC2)N(C)C(=O)[C@H](CC(C)C)NC(=O)C(C)(C)N(C)C1=O [Compound 1298] ([NMeL]I[Sar][Aze][NMeY](CF3)[Sar][Phe(3-I)][Pra][NMeAib]L[NMeD]-Piperidide; lactam N-11) | 28
15 | CC[C@H](C)[C@@H]1NC(=O)[C@H](CC(F)(F)F)N(C)C(=O)C[C@@H](C(=O)N2CCCC2)N(C)C(=O)[C@H](C2CCCCC2)N(C)C(=O)C2(CCCC2)NC(=O)[C@@H]2CC(F)(F)CN2C(=O)[C@H](CCc2cc(F)c(C(F)(F)F)c(F)c2)NC(=O)CN(C)C(=O)[C@H](Cc2ccc(C(F)(F)F)cc2)N(C)C(=O)CN(C)C(=O)CN(C)C1=O [Compound 1303] ([NMeAbu(4,4,4-F3)]I[Sar][Sar][NMePhe(4-CF3)][Sar][hPhe(3,5-F2-4-CF3)][Pro(4,4-F2)][Ac5c][NMeChg][NMeD]-Pyrrolidide; lactam N-11) | 0.72
16 | CCCC[C@@H]1NC(=O)[C@H](Cc2cccc(Br)c2F)NC(=O)CN(C)C(=O)[C@H](Cc2ccc(OC)cc2)N(C)C(=O)[C@@H]2CCN2C(=O)[C@H](C)N(C)C(=O)[C@H]([C@@H](C)CC)NC(=O)[C@H](CC)N(C)C(=O)C[C@@H](C(=O)N2CCCCC2)N(C)C(=O)[C@H](CC(C)C)NC(=O)C(C)(C)N(C)C1=O [Compound 1304] ([NMeAbu]I[NMeA][Aze][NMeY](Me)[Sar][X54][Nle][NMeAib]L[NMeD]-Piperidide; lactam N-11) | 85
17 | CCCC[C@@H]1NC(=O)[C@H](Cc2ccc(F)cc2)NC(=O)CN(C)C(=O)[C@H](Cc2ccc(Cl)cc2)N(C)C(=O)CN(C)C(=O)CN(C)C(=O)[C@H]([C@@H](C)CC)NC(=O)[C@H](CC(C)C)N(C)C(=O)C[C@@H](C(=O)N2CCCCC2)N(C)C(=O)[C@H](CC(C)C)NC(=O)C(C)(C)N(C)C1=O [Compound 1305] ([NMeL]I[Sar][Sar][NMePhe(4-Cl)][Sar][Phe(4-F)][Nle][NMeAib]L[NMeD]-Piperidide; lactam N-11) | 240
